In patent EP4644377A1, “LIPID COMPOUND FOR GENE DELIVERY AND LIPID NANOPARTICLE COMPRISING SAME” (NANJING CYBERNAX BIOMEDICAL TECHNOLOGY CO., LTD., priority 2022, dated 2024):

Test system: not listed separately
Experiment: Particle size detection of LNP (Brookhaven NanoBrook Omni, DLS)
Type: physicochemical
Settings: LNPs after coating mRNA (luciferase)
Method: Step 1. Preparation of a lipid solution and a nucleic acid solution: unless otherwise specified, all aqueous solutions involved in examples were prepared from deionized water without nucleases. An ionizable lipid, a phospholipid (disaturated phosphatidylcholine (DSPC) or dioleoylphosphatidylethanolamine (DOPE)), cholesterol and a PEG lipid (DMG-PEG2000) were mixed in a molar ratio of 50/10/38.5/1.5 (containing DSPC, formulation 1) or 36.5/16/46.5/2.5 (containing DOPE, formulation 2) and dissolved into an ethanol solution. Meanwhile, a nucleic acid (a mass ratio of ionizable lipid/nucleic acid was 10/1) was dissolved into a citrate buffer solution of pH=3, so that a final volume ratio of the ethanol solution to the citrate solution was 1/3.
Step 2. Preparation of LNP by mixing the lipid solution with the nucleic acid solution: the lipid ethanol solution and the nucleic acid aqueous solution that were prepared in Step 1 were respectively put into a sterile syringe and placed in a Precision Nanosystem Ignite instrument, the extrusion flow speeds of the ethanol solution and the water phase solution were respectively set as 3 ml/min and 9 ml/min in instrument program settings. A microfluidic chip was inserted into the instrument and LNP preparation was initiated, and then a solution mixed by the chip was collected.
Step 2.1. Preparation of an LNP solution coating nucleic acid in a porous plate: a solution of an ionizable lipid, a phospholipid (DSPC or DOPE), cholesterol and a PEG lipid (DMG-PEG2000) in ethanol was added into each well of a 96-well deep plate, so that a molar ratio of four component lipids in each well was 50/10/38.5/1.5 (containing DSPC, formulation 1) or 36.5/16/46.5/2.5 (containing DOPE, formulation 2). Then, a citrate buffer solution (pH=3, the mass of nucleic acid added into each well was 1/10 that of the ionizable lipid in this well) that was three times as ethanol in volume and dissolved with a nucleic acid molecule was quickly added into the well plate through a multi-channel pipette or an automatic liquid dispensing system and rapidly mixed, so as to obtain the LNP solution coating nucleic acid.
Step 3. Purification of the LNP solution: the LNP solution collected in Step 2 or Step 2.1 was subjected to dialysis-concentration-filtration operations, so as to obtain a final LNP solution coating nucleic acid for subsequent testing.
The LNP solution coating nucleic acid obtained in Step 3 was diluted so that the final lipid concentration was between 0.01 mg/ml and 0.1 mg/ml. The diluted solution was added into a sample reservoir, and then subjected to particle size detection in a Brookhaven NanoBrook Omni instrument.

| Compound | PDI | Particle size [nm·days] |
| --- | --- | --- |
| CCCCCCCCC(CC)OC(=O)CCCCCCCNC(=O)C(N(CCCN(C)C)C(=O)CCCCCCC(=O)OC(CC)CCCCCCCC)C(C)(C)C (centres unmarked) [Lipid 401] | 0.19 | 93.6 ± 0.84 |
| CCCCCCCCCCCC(=O)N(CCCN(C)C)C(C(=O)NCCCOC(=O)CCCCCCCC)C(C)(C)C (centres unmarked) [Lipid 163] | 0.17 | 200.94 ± 5.63 |
| CCCCC/C=C\C/C=C\CCCCCCCC(=O)N(CCN(C)CCO)C(C(=O)NCCCCCCCCCCCCCC)C(C)(C)C (centres unmarked) [Lipid 195] | 0.19 | 204.79 ± 3.09 |
| CCCCCCCCC(CC)OC(=O)CCCCCCC(=O)N(CCCN(C)C)C(C(=O)NCCCCCCCC(=O)OC(CCCCCCCC)CCCCCCCC)C(C)(C)C (centres unmarked) [Lipid 402] | 0.25 | 84.3 ± 3.42 |
| CCCCC/C=C\C/C=C\CCCCCCCC(=O)N(CCCN(C)C)C(C(=O)NCCCCCCCC(=O)OC(CCCCCCCC)CCCCCCCC)C(C)(C)C (centres unmarked) [Lipid 175] | 0.18 | 178.88 ± 3.61 |
| CCCCC/C=C\C/C=C\CCCCCCCC(=O)N(CCCN(C)C)C(C(=O)NCCCCCCCC(=O)OC(CCCCCCCC)CCCCCCCC)C1CC1 (centres unmarked) [Lipid 936] | 0.19 | 160.5 ± 2.71 |
| CCCCCCCCCCCCCCNC(=O)C(N(CCCN(CC)CC)C(=O)CCCCCCC/C=C\C[C@H](O)CCCCCC)C(C)(C)C (some centres unmarked) [Lipid 161] | 0.27 | 253.06 ± 4.58 |
| CCCCCCCC/C=C\CCCCCCCCNC(=O)C(N(CCCN(C)C)C(=O)NCCCCCCCCCCCC)C(C)(C)C (centres unmarked) [Lipid 326] | 0.18 | 111.42 ± 4.09 |
| CCCCCCCC/C=C\CCCCCCCCNC(=O)C(N(CCCN(C)C)C(=O)OCCCCCCCCCCCC)C(C)(C)C (centres unmarked) [Lipid 327] | 0.17 | 104.99 ± 1.21 |
| CCCCCCCCC(CCCCCC)C(=O)OCCCCCCNC(=O)C(N(CCCN(CC)CC)C(=O)CCCCCCC/C=C\C[C@H](O)CCCCCC)C(C)(C)C (some centres unmarked) [Lipid 294] | 0.26 | 150.04 ± 0.93 |
| CCCCCCCCCCCCCC(=O)N(CCCN(C)C)C(C(=S)NCCCCCCCC(=O)OC(CCCCCCCC)CCCCCCCC)C(C)(C)C (centres unmarked) [Lipid 317] | 0.23 | 162.23 ± 0.89 |
| CC/C=C\C/C=C\C/C=C\C/C=C\C/C=C\CCCC(=O)N(CCCN(CC)CC)C(C(=O)NCCCCCCOC(=O)C(CCCCCC)CCCCCCCC)C(C)(C)C (centres unmarked) [Lipid 295] | 0.16 | 162.45 ± 2.28 |
| CCCCCCCCC(CCCCCC)COC(=O)CCCCCCC(=O)N(CCCN(C)C)C(C(=O)NCCCCCCOC(=O)C(CCCCCC)CCCCCCCC)C(C)(C)C (centres unmarked) [Lipid 436] | 0.18 | 92.2 ± 0.47 |

Test system: C57Bl/6 mice
Experiment: Luciferase mRNA delivery in mice, IVIS chemiluminescence
Type: in vivo
Settings: LNP formulation 2 (SM102: formulation 1); luciferase mRNA 0.25 mg/kg, tail vein, C57Bl/6 mice; whole body signal 6 h after LNP, 10 min after D-luciferin 150 mg/kg i.p.
Method: The animal experiments were reviewed and approved by the Ethics Committee of Zhejiang Medical College and the Ethics Committee of Zhejiang University of Technology. 6- to 8-week-old male C57Bl/6 mice were randomly grouped with 3 mice in each group. The mice in each group received a lipid nanoparticle coating mRNA expressing a luciferase via tail vein injection at a dose of 0.25 mg/kg mouse body weight (calculated by the mass of coated mRNA). […] The mRNA delivery effect of the lipid nanoparticle is quantitatively compared through a total chemiluminiscence quantity (Total Flux p/s) of a mouse whole body within unit time (shown in Table 5).
Table 13 and Table 14 show whole body chemiluminescent signals when LNPs (formulation 2) composed of the lipids in some examples deliver Flue mRNA in mice. The delivery dose of Flue mRNA was 0.25 mg/kg. 6 h after LNP injection, 150 mg/kg of D-luciferin was intraperitoneally injected into the mice, and then the whole body chemiluminescent signals were collected in the IVIS imaging system after 10 min. […]

| Compound | Chemiluminescent signal (p/s) |
| --- | --- |
| CCCCC/C=C\C/C=C\CCCCCCCC(=O)N(CCCN(CC)CC)C(C(=O)NCCCOC(=O)CCCCCCCC)C(C)(C)C (centres unmarked) [Lipid 170] | 5.52E+08 |
| CCCCCCCCC(=O)OCCCNC(=O)C(N(CCCN(C)C)C(=O)CCCCCCC/C=C\C[C@H](O)CCCCCC)C(C)(C)C (some centres unmarked) [Lipid 166] | 2.98E+09 |
| CCCCCCCCCCCCCCNC(=O)C(N(CCCN(CC)CC)C(=O)CCCCCCCCCCC)C(C)(C)C (centres unmarked) [Lipid 158] | 3.83E+08 |
| CCCCCCCCCCCC(=O)N(CCCN(C)C)C(C(=O)NCCCOC(=O)CCCCCCCC)C(C)(C)C (centres unmarked) [Lipid 163] | 1.73E+09 |
| CCCCC/C=C\C/C=C\CCCCCCCC(=O)N(CCN(C)CCO)C(C(=O)NCCCCCCCCCCCCCC)C(C)(C)C (centres unmarked) [Lipid 195] | 1.43E+09 |
| CCCCC/C=C\C/C=C\CCCCCCCC(=O)N(CCCN(C)C)C(C(=O)NCCCCCCCC(=O)OC(CCCCCCCC)CCCCCCCC)C(C)(C)C (centres unmarked) [Lipid 175] | 7.07E+09 |
| CC/C=C\C/C=C\C/C=C\C/C=C\C/C=C\CCCC(=O)N(CCCN(C)C)C(C(=O)NCCCCCCOC(=O)C(CCCCCC)CCCCCCCC)C(C)(C)C (centres unmarked) [Lipid 287] | 1.23E+10 |
| CCCCCCCCCCCCCCNC(=O)C(N(CCN(C)CCO)C(=O)CCCCCCCCCCCCC)C(C)(C)C (centres unmarked) [Lipid 194] | 3.84E+09 |
| CCCCCCCCCCCCNC(=O)C(N(CCCN(C)CCO)C(=O)CCCCCCCCCCC)C(C)(C)C (centres unmarked) [Lipid 188] | 1.92E+10 |
| CCCCCCCCC(CCCCCCCC)OC(=O)CCCCCCCNC(=O)C(N(CCCN(CC)CC)C(=O)CCCCCCC/C=C\C[C@H](O)CCCCCC)C(C)(C)C (some centres unmarked) [Lipid 181] | 3.86E+09 |
| CCCCCCCC/C=C\CCCCCCCC(=O)OCCCNC(=O)C(C(CC)CC)N(CCCN(CC)CC)C(=O)CCCCCCCCCCC (centres unmarked) [Lipid 113] | 3.39E+08 |
| CCCCCCCCCCCC(=O)N(CCCN(C)C)C(C(=O)NCCCCCCCC(=O)OC(CCCCCCCC)CCCCCCCC)C(C)(C)C (centres unmarked) [Lipid 173] | 5.48E+08 |
| CCCCC/C=C\C/C=C\CCCCCCCC(=O)N(CCCN(C)C)C(C(=O)NCCCCCCOC(=O)C(CCCCCC)CCCCCCCC)C(C)(C)C (centres unmarked) [Lipid 285] | 2.91E+10 |
| CCCCCCCCC(CCCCCC)C(=O)OCCCCCCNC(=O)C(N(CCCN(C)C)C(=O)CCCCCCC/C=C\C[C@H](O)CCCCCC)C(C)(C)C (some centres unmarked) [Lipid 286] | 4.78E+10 |
| CCCCCCCCC(CCCCCCCC)OC(=O)CCCCCCCNC(=O)C(N(CCCN(C)C)C(=O)CCCCCCC/C=C\C[C@H](O)CCCCCC)C(C)(C)C (some centres unmarked) [Lipid 176] | 9.19E+08 |
| CCCCCCCCCCCC(=O)N(CCCN(CC)CC)C(C(=O)NCCCCCCCC(=O)OC(CCCCCCCC)CCCCCCCC)C(C)(C)C (centres unmarked) [Lipid 178] | 9.50E+08 |
| CCCCCCCCCCCCCC(=O)N(CCCN(CC)CC)C(C(=O)NCCCCCCCC(=O)OC(CCCCCCCC)CCCCCCCC)C(C)(C)C (centres unmarked) [Lipid 179] | 2.60E+09 |
| CCCCCCCC/C=C\CCCCCCCCNC(=O)C(C1CCCCC1)N(CCN1CCN(C)CC1)C(=O)CCCCCCCCCCC (centres unmarked) [Lipid 60] | 4.10E+07 |
| CCCCCCCC/C=C\CCCCCCCCNC(=O)C(N(CCCN(CC)CC)C(=O)CCCCCCCCCCC)C(C)(C)C (centres unmarked) [Lipid 30] | 1.35E+08 |
| CCCCC/C=C\C/C=C\CCCCCCCC(=O)N(CCCN(C)C)C(C(=O)NCCCC(=O)OCCCCCCCC/C=C\CCCCCCCC)C(CC)CC (centres unmarked) [Lipid 108] | 4.23E+09 |

Same assay, conditions: LNPs (formulation 2), Flue mRNA 0.25 mg/kg, tail vein injection; whole body signal 6 h after LNP injection, 10 min after 150 mg/kg D-luciferin i.p.

| Compound | Chemiluminescent signal (p/s) |
| --- | --- |
| CCCCCCCCC(CC)OC(=O)CCCCCCCNC(=O)C(N(CCCN(C)C)C(=O)CCCCCCC(=O)OC(CC)CCCCCCCC)C(C)(C)C (centres unmarked) [Lipid 401] | 5.92E+10 |
| CCCCCCCCC(CC)OC(=O)CCCCCCC(=O)N(CCCN(C)C)C(C(=O)NCCCCCCCC(=O)OC(CCCCCCCC)CCCCCCCC)C(C)(C)C (centres unmarked) [Lipid 402] | 4.20E+10 |
| CCCCCCCCCCCCCC(=O)N(CCCN(C)C)C(CC)C(=O)NCCCCCCOC(=O)C(CCCCCC)CCCCCCCC (centres unmarked) [Lipid 1041] | 3.31E+06 |
| CCCCCCCCCCCCCC(=O)N(CCCN(C)C)C(C)C(=O)NCCCCCCOC(=O)C(CCCCCC)CCCCCCCC (centres unmarked) [Lipid 1039] | 3.31E+06 |
| CCCCC/C=C\C/C=C\CCCCCCCC(=O)N(CCCN(C)C)C(CC)C(=O)NCCCCCCCC(=O)OC(CCCCCCCC)CCCCCCCC (centres unmarked) [Lipid 950] | 3.41E+07 |
| CCCCC/C=C\C/C=C\CCCCCCCC(=O)N(CCCN(C)C)C(C(=O)NCCCCCCCC(=O)OC(CCCCCCCC)CCCCCCCC)C1CCC1 (centres unmarked) [Lipid 937] | 1.01E+08 |

Same assay, conditions: result in words

| Compound | delivery efficiency in mRNA mouse in vivo delivery |
| --- | --- |
| CCCCC/C=C\C/C=C\CCCCCCCC(=O)N(CCCN(C)C)C(C(=O)NCCCCCCCC(=O)OC(CCCCCCCC)CCCCCCCC)C(C)(C)C (centres unmarked) [Lipid 175] | high delivery efficiency |
